In publication PMC9151729, “Experimental solubility and thermodynamic modeling of empagliflozin in supercritical carbon dioxide” (Scientific Reports, 2022):
In brackets after ≈: the same amount, converted by molar mass. Read-outs that look alike come from different tables or passages of the source. Marks after values point to notes of the source that are not given here.

Assays:
[1] = Solubility of empagliflozin in supercritical carbon dioxide (isobaric-isothermal method, UV-Vis at 276 nm); type: physicochemical; conditions: for solubility thermodynamic at 60 min: supercritical carbon dioxide (ScCO2), thermodynamic from solid, read-out: S (equilibrium solubility) in ScCO2
Protocol: The detailed discussion of the solubility apparatus and equilibrium cell has been presented in our earlier studies (Fig. 2)[19],[25],[40],[41]. However, a brief description about the apparatus is presented in this section. This method may be classified as an isobaric-isothermal method. Each measurement was carried out with high precision and temperatures and pressures were controlled within ± 0.1 K and ± 0.1 MPa, respectively. For all measurement, 1 g of empagliflozin drug was used. As mentioned in our previous works, the equilibrium was observed within 60 min. After equilibrium, 600 µL saturated ScCO2 sample was collected via 2-status 6-way port valve in a DMSO preloaded vial. After discharging 600 µL saturated ScCO2, the port valve was washed with 1 ml DMSO. Thus, the total saturation solution was 5 ml. Each measurement was repeated thrice and their average values were reported. Mole fraction is obtained as follows:1 y2=ndrug/ndrug+nCO2 where nsolute is the moles number of the drug, and nCO2 is the moles number of CO2 in the sampling loop.
Further, the above quantities are given as:2 nsolute=Cs·Vs/Ms 3 nCO2=V1·ρ/MCO2 where Cs is the drug concentration in saturated sample vial in g/L. The volume of the sampling loop and vial collection are V1(L) = 600 × 10^–6 m^3 and Vs(L) = 5 × 10^–3 m^3, respectively. The Ms and MCO2 are the molecular weight of drug and CO2, respectively. Solubility is also described as4 S=CSVs/V1
The relation between S and y2 is5 S=ρMs/MCO2y2/1-y2
A UV–Visible spectrophotometer (Model UNICO-4802) and DMSO solvent were used for the measurement of empagliflozin solubility. The samples were analyzed at 276 nm.

[2] = Total, sublimation and solvation enthalpies from Chrastil, Reformulated Chrastil and Bartle et al. model correlations of the solubility data; type: physicochemical
Description: It is an empirical model and mathematically stated as:7 lny2P/Pref=A2+B2/T+C2ρ-ρref where A2-C2 are model constants. From parameter B2 , one can estimate sublimation enthalpy using the relation, ΔsubH=-B2R , in which R is universal gas constant.
It is a semi-empirical model and mathematically stated as:9 c2=ρ1κexpA4+B4/T where κ,A4andB4 are model constants.
It is a semi-empirical model and mathematically explained as:15 y2=RTρ1/MCFf^·^κ^′-1expA11+B11/T where κ^′,A10andB10 are model constants.
The density-based models considered in this work have different number of adjustable parameters. These parameters range from three to six numbers. The correlating ability of the models is depicted in Figs. 5, 6, 7, 8, 9, 10, 11. From the results, it is clear that all the models are able to correlate the data reasonably well and maximum AARD% is observed to be 10.4%. It is believed that, more parameter models are able to correlate the data more accurately. Sodefian et al., model is able to correlate the data with AARD = 5.84% and Akaike’s information criterion (AIC = − 637.59) (more relevant information is presented in the following section). Among density models, Bian et al., model (five parameters model) is able to correlate the data well and corresponding AARD% is 5.1%. […] Further, Chrastil and Reformulated Chrastil models are able to provide the total enthalpy. Whereas, Bartle et al., model parameters are able to provide sublimation enthalpy of the empagliflozin drug. From the magnitude difference between the total and sublimation enthalpies, a solvation enthalpy is calculated.

[3] = 308 K, 12 MPa, ScCO2 density 769 kg/m^3
[4] = 308 K, 15 MPa, ScCO2 density 817 kg/m^3
[5] = 308 K, 18 MPa, ScCO2 density 849 kg/m^3
[6] = 308 K, 21 MPa, ScCO2 density 875 kg/m^3
[7] = 308 K, 24 MPa, ScCO2 density 896 kg/m^3
[8] = 308 K, 27 MPa, ScCO2 density 914 kg/m^3
[9] = 318 K, 12 MPa, ScCO2 density 661 kg/m^3
[10] = 318 K, 15 MPa, ScCO2 density 744 kg/m^3
[11] = 318 K, 18 MPa, ScCO2 density 791 kg/m^3
[12] = 318 K, 21 MPa, ScCO2 density 824 kg/m^3
[13] = 318 K, 24 MPa, ScCO2 density 851 kg/m^3
[14] = 318 K, 27 MPa, ScCO2 density 872 kg/m^3
[15] = 328 K, 12 MPa, ScCO2 density 509 kg/m^3
[16] = 328 K, 15 MPa, ScCO2 density 656 kg/m^3
[17] = 328 K, 18 MPa, ScCO2 density 725 kg/m^3
[18] = 328 K, 21 MPa, ScCO2 density 769 kg/m^3
[19] = 328 K, 24 MPa, ScCO2 density 802 kg/m^3
[20] = 328 K, 27 MPa, ScCO2 density 829 kg/m^3
[21] = 338 K, 12 MPa, ScCO2 density 388 kg/m^3
[22] = 338 K, 15 MPa, ScCO2 density 557 kg/m^3
[23] = 338 K, 18 MPa, ScCO2 density 652 kg/m^3
[24] = 338 K, 21 MPa, ScCO2 density 710 kg/m^3
[25] = 338 K, 24 MPa, ScCO2 density 751 kg/m^3
[26] = 338 K, 27 MPa, ScCO2 density 783 kg/m^3

y2 solubility in ScCO2 (mole fraction) [1, 3]: 0.0814 y2 × 10^4 (mole fraction)
y2 solubility in ScCO2 (mole fraction) [1, 4]: 0.1266 y2 × 10^4 (mole fraction)
y2 solubility in ScCO2 (mole fraction) [1, 5]: 0.1327 y2 × 10^4 (mole fraction)
y2 solubility in ScCO2 (mole fraction) [1, 6]: 0.1411 y2 × 10^4 (mole fraction)
y2 solubility in ScCO2 (mole fraction) [1, 7]: 0.1501 y2 × 10^4 (mole fraction)
y2 solubility in ScCO2 (mole fraction) [1, 8]: 0.1806 y2 × 10^4 (mole fraction)
y2 solubility in ScCO2 (mole fraction) [1, 9]: 0.0706 y2 × 10^4 (mole fraction)
y2 solubility in ScCO2 (mole fraction) [1, 10]: 0.1182 y2 × 10^4 (mole fraction)
y2 solubility in ScCO2 (mole fraction) [1, 11]: 0.1515 y2 × 10^4 (mole fraction)
y2 solubility in ScCO2 (mole fraction) [1, 12]: 0.1601 y2 × 10^4 (mole fraction)
y2 solubility in ScCO2 (mole fraction) [1, 13]: 0.2040 y2 × 10^4 (mole fraction)
y2 solubility in ScCO2 (mole fraction) [1, 14]: 0.2079 y2 × 10^4 (mole fraction)
y2 solubility in ScCO2 (mole fraction) [1, 15]: 0.0611 y2 × 10^4 (mole fraction)
y2 solubility in ScCO2 (mole fraction) [1, 16]: 0.1044 y2 × 10^4 (mole fraction)
y2 solubility in ScCO2 (mole fraction) [1, 17]: 0.1620 y2 × 10^4 (mole fraction)
y2 solubility in ScCO2 (mole fraction) [1, 18]: 0.1860 y2 × 10^4 (mole fraction)
y2 solubility in ScCO2 (mole fraction) [1, 19]: 0.2248 y2 × 10^4 (mole fraction)
y2 solubility in ScCO2 (mole fraction) [1, 20]: 0.2260 y2 × 10^4 (mole fraction)
y2 solubility in ScCO2 (mole fraction) [1, 21]: 0.0514 y2 × 10^4 (mole fraction)
y2 solubility in ScCO2 (mole fraction) [1, 22]: 0.0928 y2 × 10^4 (mole fraction)
y2 solubility in ScCO2 (mole fraction) [1, 23]: 0.2002 y2 × 10^4 (mole fraction)
y2 solubility in ScCO2 (mole fraction) [1, 24]: 0.2266 y2 × 10^4 (mole fraction)
y2 solubility in ScCO2 (mole fraction) [1, 25]: 0.2637 y2 × 10^4 (mole fraction)
y2 solubility in ScCO2 (mole fraction) [1, 26]: 0.2590 y2 × 10^4 (mole fraction)
cross over region of the solubility isotherms ([1]; ScCO2, isotherms 308 to 338 K): 16.5 MPa
solubility thermodynamic at 60 min [1, 3]: 64.3 µg/mL (≈ 143 µM)
solubility thermodynamic at 60 min [1, 4]: 106 µg/mL (≈ 235 µM)
solubility thermodynamic at 60 min [1, 5]: 116 µg/mL (≈ 256 µM)
solubility thermodynamic at 60 min [1, 6]: 126 µg/mL (≈ 281 µM)
solubility thermodynamic at 60 min [1, 7]: 138 µg/mL (≈ 306 µM)
solubility thermodynamic at 60 min [1, 8]: 169 µg/mL (≈ 375 µM)
solubility thermodynamic at 60 min [1, 9]: 47.9 µg/mL (≈ 106 µM)
solubility thermodynamic at 60 min [1, 10]: 90.1 µg/mL (≈ 200 µM)
solubility thermodynamic at 60 min [1, 11]: 123 µg/mL (≈ 272 µM)
solubility thermodynamic at 60 min [1, 12]: 135 µg/mL (≈ 300 µM)
solubility thermodynamic at 60 min [1, 13]: 181 µg/mL (≈ 402 µM)
solubility thermodynamic at 60 min [1, 14]: 186 µg/mL (≈ 412 µM)
solubility thermodynamic at 60 min [1, 15]: 31.9 µg/mL (≈ 70.7 µM)
solubility thermodynamic at 60 min [1, 16]: 70.2 µg/mL (≈ 156 µM)
solubility thermodynamic at 60 min [1, 17]: 120 µg/mL (≈ 267 µM)
solubility thermodynamic at 60 min [1, 18]: 147 µg/mL (≈ 325 µM)
solubility thermodynamic at 60 min [1, 19]: 185 µg/mL (≈ 410 µM)
solubility thermodynamic at 60 min [1, 20]: 192 µg/mL (≈ 426 µM)
solubility thermodynamic at 60 min [1, 21]: 20.4 µg/mL (≈ 45.2 µM)
solubility thermodynamic at 60 min [1, 22]: 53 µg/mL (≈ 118 µM)
solubility thermodynamic at 60 min [1, 23]: 134 µg/mL (≈ 297 µM)
solubility thermodynamic at 60 min [1, 24]: 165 µg/mL (≈ 366 µM)
solubility thermodynamic at 60 min [1, 25]: 203 µg/mL (≈ 450 µM)
solubility thermodynamic at 60 min [1, 26]: 208 µg/mL (≈ 461 µM)
Enthalpy of sublimation, ΔHsub ([2]; obtained with Bartle et al. model): ~49.653^c (approximate value) kJ/mol
Total entalpy, ΔHtotal ([2]; obtained with Chrastil model): 30.548^a kJ/mol
Total entalpy, ΔHtotal ([2]; obtained with Reformulated Chrastil model): 22.496^b kJ/mol
SMILES: OC[C@H]1O[C@@H](c2ccc(Cl)c(Cc3ccc(O[C@H]4CCOC4)cc3)c2)[C@H](O)[C@@H](O)[C@@H]1O [empagliflozin]
